Results from patent US6656911B2, “Serine protease inhibitors” (Cortech, Inc., priority 1994, dated 2003).

Biological target: T1, human neutrophil elastase (HNE) (Homo sapiens, UniProt P08246)
T1 sequence (P08246 30-267): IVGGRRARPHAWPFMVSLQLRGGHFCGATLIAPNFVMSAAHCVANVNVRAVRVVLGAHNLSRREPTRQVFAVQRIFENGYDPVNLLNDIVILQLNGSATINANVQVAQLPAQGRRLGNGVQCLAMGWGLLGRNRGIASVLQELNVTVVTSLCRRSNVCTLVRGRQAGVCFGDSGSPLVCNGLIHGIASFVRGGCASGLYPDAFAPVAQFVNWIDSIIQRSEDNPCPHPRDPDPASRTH
Test: HNE Ki of CE compounds, tested as described in WO 96/16080
Format: biochemical
Conditions: read-out: HNE Ki

Work on `CC(C)[C@H](NC(=O)CN(Cc1ccccc1)C(=O)c1ccc[nH]1)C(=O)c1noc(Cc2cccc(C(F)(F)F)c2)n1` [CE2097, (Pyrrole-2-carbonyl)-N-(benzyl)glycyl-N-[1-(3-[5-(3-trifluoromethylbenzyl)1-1,2,4-oxadiazolyl]carbonyl)-(S)-methylpropyl]amide] yielded a Ki of 115 nM.
In the case of `CC(C)[C@H](NC(=O)[C@@H]1CCCN1C(=O)[C@@H](NC(=O)OCc1ccccc1)C(C)C)C(=O)c1noc(Cc2cccc(-c3ccccc3)c2)n1` [CE2062, (Benzyloxycarbonyl)-L-valyl-N-[1-(3-[5{3-phenylbenzyl)-1,2,4-oxadiazolyl]carbonyl)-2-(S)-methylpropyl]-L-prolinamide], the Ki is reported as 0.3 nM.
With `CC(C)[C@H](NC(=O)[C@@H]1CCCN1C(=O)[C@@H](NC(=O)OCc1ccccc1)C(C)C)C(=O)c1noc(Cc2ccc(N(C)C)cc2)n1` [CE2115, (Benzyloxycarbonyl)-L-valyl-N-[1-(3-[5-(4-dimethylaminobenzyl)-1,2,4-oxadiazolyl]carbonyl)-2-(S)-methylpropyl]-L-prolinamide] the Ki was 1 nM.
`Cc1cccc(Cc2nnc(C(=O)[C@@H](NC(=O)[C@@H]3CCCN3C(=O)[C@@H](NC(=O)OC(C)C)C(C)C)C(C)C)o2)c1` [CE2202, Isopropyloxycarbonyl-L-valyl-N-[1-(2-[5-(3-methylbenzyl)-1,3,4-oxadiazolyl]carbonyl)-2-(S)-methylpropyl]-L-prolinamide] was tested, and the Ki was 0.12 nM.
“(R,S)-3-Amino-2-oxo-5-phenyl-1,4-(6-2′-chlorobenzodiazepine)-N-[1-(2-[5-phenyl-1,3,4-oxadiazolyl]carbonyl)-2-(R,S)-propyl]acetamide [CE2211]” showed a Ki of 348 nM.
Work on `Cc1cccc(Cc2nnc(C(=O)[C@@H](NC(=O)CN3C(=O)CN(Cc4ccc5c(c4)OCCO5)C(=O)[C@H]3Cc3ccccc3)C(C)C)o2)c1` [CE2197, 4-[1-(3,4-Ethylenedioxybenzyl)-3-(R)-benzylpiperazine-2,5-dione]-N-[1-(2-[5-(3-methylbenzyl)-1,3,4-oxadiazolyl]carbonyl)-2-(S)-methylpropyl]acetamide] yielded a Ki of 4.8 nM.
Molecule `Cc1cccc(Cc2nnc(C(=O)C(NC(=O)CN3C(=O)CSC3c3ccccc3)C(C)C)o2)c1` [CE2121, 2-[2-(R,S)-Phenyl-4-oxothiazolidin-3-yl]-N-[1-(2-[5-(3-methylbenzyl)-1,3,4-oxadiazolyl]carbonyl)-2-(S)-methylpropyl]acetamide] has a Ki of 28 nM.
Molecule `Cc1cccc(Cc2nnc(C(=O)[C@@H](NC(=O)CN3CC(=O)N(c4ccccc4)CC3=O)C(C)C)o2)c1` [CE2147, (1-Phenyl-3,6-piperazinedione)-N-[1-(2-[5-(3-methylbenzyl)-1,3,4-oxadiazolyl]carbonyl)-2-(S)-methylpropyl]acetamide] has a Ki of 1600 nM.
`Cc1cccc(Cc2nnc(C(=O)[C@@H](NC(=O)[C@@H]3CCCN3C(=O)[C@@H](NS(=O)(=O)c3ccccc3)C(C)C)C(C)C)o2)c1` [CE2168, Phenylsulfonyl-L-valyl-N-[1-(2-[5-(3-methylbenzyl)-1,3,4-oxadiazolyl]carbonyl)-2-(S)-methylpropyl]-L-prolinamide] gave a Ki of 0.15 nM.
Work on `CC(C)[C@H](NC(=O)[C@@H]1CCCN1C(=O)[C@@H](NC(=O)OCc1ccccc1)C(C)C)C(=O)c1noc(CC2CCCCC2)n1` [CE2069] yielded a Ki of 4.4 nM.
`Cc1cccc(Cc2nnc(C(=O)[C@@H](NC(=O)Cn3c(=O)[nH]n(Cc4ccccc4)c3=O)C(C)C)o2)c1` [CE2176, 1-Benzyl-1,2,4-triazolidine-3,5-dione-N-[1-(2-[5-(3-methylbenzyl)-1,3,4-oxadiazolyl]carbonyl)-2-(S)-methylpropyl]acetamide] gave a Ki of 52 nM.
`COC(=O)c1c(F)c2ccccc2n(CC(=O)N[C@H](C(=O)c2nnc(Cc3cccc(C)c3)o2)C(C)C)c1=O` [CE2117, 3-Carbomethoxy-4-fluoro-quinoline-2-one-N-[1-(2-[5-(3-methylbenzyl)-1,3,4-oxadiazolyl]carbonyl)-2-(S)-methylpropyl]acetamide] was tested, and the Ki was 586 nM.
`CC(C)[C@H](NC(=O)[C@@H]1CCCN1C(=O)[C@@H](NC(=O)OCc1ccccc1)C(C)C)C(=O)c1noc(Cc2cccnc2)n1` [CE2078, (Benzyloxycarbonyl)-L-valyl-N-[1-(3-[5-(3-pyridylmethyl)-1,2,4-oxadiazolyl]carbonyl)-2-(S)-methylpropyl]-L-prolinamide] gave a Ki of 1.05 nM.
`Cc1cccc(Cc2nnc(C(=O)[C@@H](NC(=O)Cn3c(=O)c(NC(=O)OCc4ccccc4)cc4ccc(N5CCCCC5)cc43)C(C)C)o2)c1` [CE2107, 3-[(Benzyloxycarbonyl)amino]-7-piperidinyl-quinoline-2-one-N-[1-(2-[5-(3-methylbenzyl)-1,3,4-oxadiazolyl]carbonyl)-2-(S)-methylpropyl]acetamide] gave a Ki of 17 nM.
In the case of `Cc1cccc(Cc2nnc(C(=O)[C@@H](NC(=O)CN3C(=O)CN(Cc4ccccc4)C(=O)[C@@H]3Cc3ccccc3)C(C)C)o2)c1` [CE2128, 4-[1-Benzyl-3-(S)-benzylpiperazine-2,5,-dione]-N-[1-(2-(5-(3-methylbenzyl)-1,3,4-oxadiazolyl]carbonyl)-2-(S)-methylpropyl]acetamide], the Ki is reported as 64 nM.
Molecule `Cc1cccc(Cc2nnc(C(=O)[C@@H](NC(=O)CN3CC(=O)N(C(=O)c4ccccc4)CC3=O)C(C)C)o2)c1` [CE2138, (1-Benzoyl-3,6-piperazinedione)-N-[1-(2-[5-(3-S methylbenzyl)-1,3,4-oxadiazolyl]carbonyl)-2-(S)-methylpropyl]acetamide] has a Ki of 294 nM.
Work on `Cc1cccc(Cc2nnc(C(=O)[C@@H](NC(=O)CN3C(=O)CNC(=O)C3Cc3ccncc3)C(C)C)o2)c1` (stereo partly drawn) [CE2159, 2-(R,S)-[6-(Methylene-4-pyridyl)piperazine-2,5-dione]-N-[1-(2-[5-(3-methylbenzyl)-1,3,4-oxadiazolyl]carbonyl)-2-(S)-methylpropyl]acetamide] yielded a Ki of 52 nM.
`CC(C)C(NC(=O)CN1C(=O)C[S+]([O-])C1Cc1ccccc1)C(=O)c1noc(Cc2cccc(C(F)(F)F)c2)n1` [CE2137, 2-[2-(R,S)-Benzyl-4-oxothiazolidin-3-yloxide]-N-[1-(3-[5-(3-trifluoromethylbenzyl)-1,2,4-oxadiazolyl]carbonyl)-2-(R,S)-methylpropyl]acetamide] was tested, and the Ki was 558 nM.
`Cc1cccc(Cc2nnc(C(=O)[C@@H](NC(=O)CN3C(=O)CSC3Cc3ccccc3)C(C)C)o2)c1` (stereo partly shown) [CE2122] gave a Ki of 63 nM.
`CC(C)[C@H](NC(=O)[C@@H]1CCCN1C(=O)[C@@H](NC(=O)OCc1ccccc1)C(C)C)C(=O)c1noc(Cc2ccc(-c3ccccc3)cc2)n1` [CE2058, (Benzyloxycarbonyl)-L-valyl-N-[1-(3-[5-(4-phenylbenzyl)-1,2,4-oxadiazolyl]carbonyl)-2-(S)-methylpropyl]-L-prolinamide] showed a Ki of 0.564 nM.
Molecule `CC(C)[C@H](NC(=O)Cn1c(-c2ccc(F)cc2)ncc(N)c1=O)C(=O)c1noc(Cc2cccc(C(F)(F)F)c2)n1` [CE2090] has a Ki of 2.7 nM.
Work on `Cc1cccc(Cc2nnc(C(=O)[C@@H](NC(=O)[C@@H]3CCCN3C(=O)[C@@H](NC(=O)N3CCOCC3)C(C)C)C(C)C)o2)c1` [CE2104, (Morpholino-N-carbonyl)-L-valyl-N-[1-(2-[5-(3-methylbenzyl)-1,3,4-oxadiazolyl]carbonyl)-2-(S)-methylpropyl]-L-prolinamide] yielded a Ki of 0.33 nM.
In the case of `CC(C)[C@H](NC(=O)CN1C(=O)CN(Cc2ccccc2)C1=O)C(=O)c1noc(Cc2cccc(C(F)(F)F)c2)n1` [CE2189, 1-Benzyl-2,4-imidazolidinedione-N-[1-(3-[5-(3-trifluoromethylbenzyl)-1,2,4-oxadiazolyl]carbonyl)-2-(S)-methylpropyl]acetamide], the Ki is reported as 99 nM.
`CC(C)[C@H](NC(=O)CN1CCCC(NC(=O)OCc2ccccc2)C1=O)C(=O)c1noc(Cc2cccc(C(F)(F)F)c2)n1` (stereo partly drawn) [CE2160, 3-(R,S)-[(Benzyloxycarbonyl)amino-δ-lactam]-N-[1-(3-[5-(3-trifluoromethylbenzyl)-1,2,4-oxadiazolyl]carbonyl)-2-(S)-methylpropyl]acetamide] was tested, and the Ki was 260 nM.
Molecule `Cc1cccc(Cc2nnc(C(=O)[C@@H](NC(=O)Cn3c(=O)c4ccccc4n(C(=O)c4ccccc4)c3=O)C(C)C)o2)c1` [CE2140, (1-Benzoyl-3,8-quinazolinedione)-N-[1-(2-[5-(3-methylbenzyl)-1,3,4-oxadiazolyl]carbonyl)-2-(S)-methylpropyl]acetamide] has a Ki of 204 nM.
With `Cc1nnc(C(=O)[C@@H](NC(=O)[C@@H]2CCCN2C(=O)[C@@H](NC(=O)OCc2ccccc2)C(C)C)C(C)C)o1` [CE2074] the Ki was 1 nM.
“(Benzyloxycarbonyl)-L-valyl-N-[1-(2-[5-(1-napthylenyl)-1,3,4-xadiazolyl]carbonyl)-2-(S)-methylpropyl]-L-prolinamide [CE2124]” was tested, and the Ki was 0.033 nM.
Work on `Cc1cccc(Cc2nnc(C(=O)[C@@H](NC(=O)CN3C(=O)CN(Cc4ccccc4)C(=O)[C@H]3Cc3ccccc3)C(C)C)o2)c1` [CE2144, 4-[1-Benzyl-3-(R)-benzyl-piperazine-2,5,-dione]-N-[1-([5-(3-methylbenzyl)-1,3,4-oxadiazolyl]carbonyl)-2-(S)-methylpropyl]acetamide] yielded a Ki of 9.3 nM.
`Cc1cccc(Cc2nnc(C(=O)C(NC(=O)CN3C(=O)CCCC3c3ccc(F)cc3)C(C)C)o2)c1` [CE2087, 6-[4-Fluorophenyl]-ε-lactam-N-[1-(2-[5-(3-methylbenzyl)-1,3,4-oxadiazolyl]carbonyl)-2-(S)-methylpropyl]acetamide] gave a Ki of 20 nM.
`CC(C)[C@H](NC(=O)[C@@H]1CCCN1C(=O)[C@@H](NC(=O)OCc1ccccc1)C(C)C)C(=O)c1noc(Cc2cc(-c3ccccc3)cc(-c3ccccc3)c2)n1` [CE2096, (Benzyloxycarbonyl)-L-valyl-N-[1-(3-[5-(3,5-diphenylbenzyl)-1,2,4-oxadiazolyl]carbonyl)-2-(S)-methylpropyl]-L-prolinamide] gave a Ki of 0.79 nM.
For “2-Oxo-5-methyl-1,4-(1-thiophenodiazepine)-N-[1-(2-[5-(3-methylbenzyl)-1,3,4-oxadiazolyl]carbonyl)-2-(S)-methylpropyl]acetamide [CE2244]”, the Ki was 78.5 nM.
